The text below walks through data of US20200375963A1 (priority 2017, published 2020).

Common to all, as to format: cell-based, human
Test [1] has as its system HIF-1α. Briefly: HIF-1α immunoblot of HEK293T cells. The method, then:
(§1) Leukoreduction filters (Terumo BCT, Lakewood, Colo.), waste products of platelet donation process, were used to isolate PBMCs by an IRB-approved protocol. PBMCs were isolated using Histopaque-1077 (Sigma). Monocyte-enriched PBMCs (MEPs) were prepared using cold-aggregation method with slight modifications (30,60) Monocytes were isolated from MEPs or PBMCs using EasySep Human CD14 Positive Selection Kit (STEMCELL Technologies). Flow cytometric verification of isolated CD14+ cells were performed using RPCI core facility services. The MEPs were cultured at an average density of 25-35×10^6/ml in 1 or 2 ml per well in 6- or 12-well standard tissue culture plates under standard conditions (37° C./5% CO2) in RPMI-1640 medium with 10% FBS, 100 U/ml penicillin and […] streptomycin (Mediatech). Isolated CD14+ and CD14− cells were cultured at approximately 5×10^6 cell/ml and 7×10^6 cells per ml densities, respectively. THP-1 and TLA-HEK293T cell lines were purchased from ATCC, and Open Biosystems®, respectively, and cultured in recommended conditions. THP-1 cells were cultured in 10^6 cells per 100 μl in 96-well culture plates in ATCC-formulated-1640 medium (30-2001), whereas 293T cells were cultured in DMEM medium supplemented with 10% FBS.
(§2) Cells were cultured under 1% or 6% O2, 5% CO2 and 94% N2 at 37° C. using Xvivo System (Biospherix). Human ‘universal’ type I IFN was obtained from PBL Assay Science and used at 600 U/ml. Atpenin A5 (Cayman chemical #11898), myxothiazol (Sigma-Aldrich, #T5580) and 2-Thenoyltrifluoroacetone (TTFA) (Sigma-Aldrich, #T27006) were used at 1-2 μM and 400 μM final concentrations, respectively. DFO (Sigma-Aldrich #D9533) and DMOG (Sigma-Aldrich #D3695) were used in 0.5 mM and 1.0 mM final concentrations, respectively.
(§3) 2× Laemmeli buffer (BIO-RAD) was used to prepare whole cell lysates. The lysate resuspended in the Laemmeli buffer was heated at 95° C. for 15 minutes, and 40 μl of the sample was used to perform gel electrophoresis on pre-cast, 4%-15% gradient polyacrylamide gels (Mini-PROTEAN TGX, Bio-Rad) in Laemmeli buffer system. Mouse monoclonal anti-HIF1α (product number GTX628480, GT10211; 1:1000 dilution) and mouse monoclonal anti-β-actin (product number AM4302, AC-15; 1:15,000 dilution) was used to detect HIF-1α or actin, respectively followed by incubation with HRP-conjugated goat anti-mouse antibodies (Life Technologies) at 1:2000 dilution.
For orientation: A western blot detects proteins with antibodies after separation by electrophoresis.

The subject of test [2] is HIF-1α. Briefly: HIF-1α immunoblot of CD14+ and CD14− primary cells. The method, then:
as §1, §2, §3

Test [3] relates to monocyte-enriched PBMCs (MEPs). The test is described as follows: Oxygen consumption in MEPs (MitoXpress-Xtra phosphorescent oxygen probe). As to conditions: approximately 3 hours, n=3 donors. The method, then:
(§4) We first measured oxygen consumption and L-lactate levels to confirm the effect of AtA5 and MXT on mitochondrial respiration in MEPs. We used a phosphorescent oxygen probe (MitoXpress-Xtra) which is quenched by oxygen. Cellular respiration in a closed system depletes oxygen and increases the fluorescence. […] Normoxic induction of RNA editing by MXT is also confirmed in a separate experiment from three additional donors (FIG. 11).
(§5) Oxygen consumption was measured using phosphorescent oxygen probe, MitoXpress-Xtra (Cayman Dual Assay Kit, item no. 601060). Monocytes were enriched to >50% purity by short-term cold aggregation and first cultured in standard conditions for 24 hours without treatment to stimulate metabolic activity. Cells were then centrifuged at 200×g for 7 minutes and resuspended in 1 ml RPMI/1% FBS with or without mitochondrial inhibitors. Cells are covered by mineral oil after addition of MitoXpress-Xtra following manufacturer's protocol. The fluorescence was kinetically measured on a plate reader (Synergy H1) at 20 sec intervals for approximately 3 hours (delay 70 μsec, collection time 30 μsec). Supernatants of the oxygen consumption assay were used to measure L-lactate levels following manufacturer's instructions.

The test system of test [4] is A3A-mediated RNA editing (SDHB c.136 C>U) in monocyte-enriched PBMCs (MEPs). The test is described as follows: SDHB c.136 C>U RNA editing in monocyte-enriched PBMCs (allele specific RT-qPCR). The method, then: as §1, §2
(§6) RNA and plasmid DNA were isolated with commercial kits (TRIzol, Life Technologies and Qiagen, respectively). RNA/DNA was quantified by Nanodrop 2000 (Thermo Fisher). Proteins were quantified using Bio-Rad Dc assay with BSA standards. RNA was reverse transcribed with the Transcriptor First Strand cDNA Synthesis (Roche) kit. SDHB c.136C>U RNA editing was quantified by allele specific RT-qPCR PCR oligonucleotide primers (FIG. 13) were obtained from Integrated DNA Technologies, Inc. ADM, ELL2, HILPDA, NGLY1, MET, TKTL1, VEGFA and B2M gene expression levels was assessed by qPCR using FastStart Taq DNA polymerase and SYBR Green I dye on a LightCycler 480 System (Roche). Quantification cycle values were calculated by the instrument software using the maximum second derivative method and the mean quantification cycle value of duplicate PCR reactions was used for analysis. Delta delta CT method is used to infer gene expression changes.

Test [5] has as its system hypoxia-regulated genes (HILPDA, VEGFA) in THP-1 cells. Briefly: RT-qPCR of hypoxia-regulated genes in THP-1 cells. As to conditions: THP-1, normoxia or hypoxia (1%), 24 hours, HILPDA and VEGFA. On the procedure: (§7) Leukoreduction filters (Terumo BCT, Lakewood, Colo.), waste products of platelet donation process, were used to isolate PBMCs by an IRB-approved protocol. PBMCs were isolated using Histopaque-1077 (Sigma). Monocyte-enriched PBMCs (MEPs) were prepared using cold-aggregation method with slight modifications (30,60) Monocytes were isolated from MEPs or PBMCs using EasySep Human CD14 Positive Selection Kit (STEMCELL Technologies). Flow cytometric verification of isolated CD14+ cells were performed using RPCI core facility services. […]
as §6, with “RNA was reverse transcribed with the Transcriptor First Strand cDNA Synthesis (Roche) kit.” left out, “Delta delta CT method is used to infer gene expression changes.” left out
(Quantitative PCR measures a nucleic acid by following its amplification.)

In test [6] the test system is hypoxia-regulated genes (ELL2, VEGFA) in 293T cells. Briefly: RT-qPCR of hypoxia-regulated genes in 293T cells. As to conditions: normoxia and hypoxia (1% O2), 24 hours. On the procedure:
as §7
as §6, with “RNA was reverse transcribed with the Transcriptor First Strand cDNA Synthesis (Roche) kit.” left out, “Delta delta CT method is used to infer gene expression changes.” left out

Test [7] relates to monocyte-enriched PBMCs (MEPs). Briefly: L-Lactate levels in extra-cellular media of MEPs. Particulars: supernatants of the oxygen consumption assay. The method, then:
as §4, §5

For test [8], the system named is hypoxia-related gene expression in CD14+ monocytes. Briefly: Gene expression in CD14+ monocytes (RNA seq, RT-qPCR). Particulars: isolated CD14+ monocytes, normoxia, 1 day, n=3 donors.
For test [9], the system named is HIF-1α. The test is described as follows: HIF-1α immunoblot of THP-1 cells. Particulars: THP-1, hypoxia 1% O2, 24 hours. The method, then:
as §1
Cells were cultured under 1% or 6% O2, 5% CO2 and 94% N2 at 37° C. using Xvivo System (Biospherix). […]

Test [10] relates to hypoxia-response elements (HRE) from PGK1, a HIF-1α target gene. The test is described as follows: HRE-luciferase reporter in HEK293T cells. As to conditions: 293T. On the procedure:
It is possible that HIF-1α may have degraded depending on cell type, time of analysis (24 h) or another factor. Therefore, we further examined the effect of AtA5 in HEK293T embryonic kidney cell line and THP-1 monocytic leukemia cell line over a 24 hour period. Several studies in cell lines have reported normoxic stabilization of HIF-1α upon knocking down MTCII (Selak et al., (2005), Cancer. Cell, 7, 77-85, Guzy et al., (2008), Mol. Cell. Biol., 28, 718-731, Cervera et al., (2008), Cancer Res., 68, 4058-4067). […] Since AtA5 appeared to suppress HIF-1α in mild hypoxia, we exposed the cells to both 6% and 1% O2. […] To confirm the suppression of HIF-regulated gene expression, we used a plasmid construct expressing firefly luciferase under the control of three hypoxia-response elements […] from PGK1, a HIF-1α target gene.
HEK293T cells were cotransfected with the 400 ng of HRE-luciferase (Addgene, plasmid #26731), 1 ng of pRL-SV40 plasmid, 600 ng of pcDNA 3.1(+) (control empty vector) per well at ˜50-60% confluency using jetPRIME (Polyplus-transfection) in 12-well culture plates as per the manufacturer's instructions. Transfection efficiency was 60%-80% as assessed by fluorescent microscopy of cells co-transfected with the pLemiR plasmid DNA (Open Biosystems) for expression of a red fluorescent protein. Cells were harvested 2 days after transfection for measurement of their HRE and Renilla luciferase activities using Dual-Luciferase Reporter Assay System (Promega). HRE expression was quantified as a ratio of HRE/Renilla luciferase activities.

The mark [11] stands for this setting: HEK293T, normoxia, 24 hours, DMOG 1 mM, DFO 0.5 mM, AtA5 1 μM.

Consider `CC(=O)N(O)CCCCCNC(=O)CCC(=O)N(O)CCCCCNC(=O)CCC(=O)N(O)CCCCCN.CS(=O)(=O)O` [DFO], for which, in test [1] (setting [11]), the “stabilization of HIF-1α” value is on record as “stabilized HIF-1α in normoxia”.

Regarding `COC(=O)CNC(=O)C(=O)OC` [DMOG], the “stabilization of HIF-1α” value in test [1] (setting [11]) was “stabilized HIF-1α in normoxia”. Moreover, in test [2] (normoxia, CD14+ and CD14− cells isolated after culture of MEPs for 1 or 2 days), the “HIF-1α stabilization (western blot)” value is “caused robust normoxic stabilization of HIF-1α”.

For the molecule `CO/C(=C/C(N)=O)[C@H](C)[C@H](/C=C/c1csc(-c2csc([C@@H](C)/C=C/C=C/C(C)C)n2)n1)OC` [MXT, myxothiazol], the oxygen consumption result in test [3] is on record as “completely suppressed oxygen consumption”. For the same molecule, the “SDHB c.136 C>U RNA editing” value is listed as “no statistically significant effect” in test [4] (inhibitor jointly with hypoxia (1% O2), compared to hypoxia alone); “increased the editing level” in [4] (mild hypoxia (6% O2)); “induced SDHB mRNA editing in normoxia” in test [4] (normoxia, 1-3 days). For the same molecule, the “expression of hypoxia-regulated genes” value in test [5] and in test [6] was “suppressed” in each case. Further, the “stabilization of HIF-1α” value in test [1] (293T, 1% O2, 24 hours) was “inhibited it both at 6% O2 and 1% O2”; in test [1] (293T, 6% O2, 24 hours), “inhibited it both at 6% O2 and 1% O2”; in test [9] it was “inhibited it even at 1% O2”. In [7], the L-Lactate levels entry was “increased relative to the degree of respiratory inhibition”. Further, the “mRNA expression of VEGFA and HILPDA” value in test [8] is given as “statistically significantly increased”. For the same molecule, the “HIF-1α stabilization (western blot)” value in test [2] (hypoxia (1% O2), monocytes isolated from PBMCs then cultured 24 hours, three donors) is recorded as “appeared to enhance the stabilization of HIF-1α in hypoxic monocytes in two of three donors”; in [2] (normoxia, monocytes isolated from PBMCs then cultured 24 hours) it was “did not robustly stabilize HIF-1α”. Besides, the “HRE-driven expression (ratio of HRE/Renilla luciferase activities)” value is reported as “inhibited HRE-driven expression” in test [10] (1% O2, 24 hours) and “inhibited HRE-driven expression” in test [10] (6% O2, 24 hours).

In the case of `O=C(CC(=O)C(F)(F)F)c1cccs1` [TTFA, 2-Thenoyltrifluoroacetone], the “SDHB c.136 C>U RNA editing” value in [4] (normoxia, 1-3 days) is given as “also induced RNA editing in normoxia”.
